Reference: patent publication US6395773B1, “Anti-drug resistant strain agents and antichlamydia agents” (Japan Science and Technology Corporation, priority 1999, dated 2002)
Values after ≈ are worked out from the molar mass of the structure shown.

Key:
[1] = test system: methicillin-resistant Staphylococcus aureus (MRSA); assay: Effect on decreasing antibiotic resistance by concomitant use of FNQ3, MRSA; details: for MIC: Staphylococcus aureus, 24 h, read-out: MIC of antibiotic, −FNQ3; for MIC of antibiotic, +FNQ3: concomitant FNQ3, final concentration 0.5 μg/ml; for decrease of the resistance of MRSA against the antibiotic (fraction of MIC): with the Compound (FNQ3) 0.5 μg/ml
[2] = test system: methicillin-sensitive Staphylococcus aureus (MSSA); assay: Effect on decreasing antibiotic resistance by concomitant use of FNQ3, MSSA; details: for MIC: Staphylococcus aureus, 24 h, read-out: MIC of antibiotic, −FNQ3; for MIC of antibiotic, +FNQ3: concomitant FNQ3, final concentration 0.5 μg/ml
[3] = test system: fluconazole-sensitive Candida albicans (FSCA); assay: Proliferation inhibitory test for Candida albicans (agar medium MIC), FSCA
[4] = test system: fluconazole-resistant Candida albicans (FRCA); assay: Proliferation inhibitory test for Candida albicans (agar medium MIC), FRCA; details: for MIC: Candida albicans
[5] = test system: all tested strains of Chlamydia; format: cell-based; details: tendency; McCoy and WI38 versus HeLa229
C. trachomatis = assay: microbe, parasite or virus in culture; format: cell-based; details: Chlamydia trachomatis
C. pneumoniae = assay: microbe, parasite or virus in culture; format: cell-based; details: Chlamydia pneumoniae
Staphylococcus aureus = assay: FNQ3 alone, growth of Staphylococcus aureus; details: 0.5 μg/ml
C. psittaci = assay: microbe, parasite or virus in culture; format: cell-based; details: Chlamydia psittaci, strain Cal 10
[6] = test system: methicillin-resistant Staphylococcus aureus (MRSA); assay: Proliferation inhibitory test for Staphylococcus aureus (agar medium MIC), MRSA; details: for MIC: Staphylococcus aureus, MRSA
[7] = test system: methicillin-sensitive Staphylococcus aureus (MSSA); assay: Proliferation inhibitory test for Staphylococcus aureus (agar medium MIC), MSSA; details: for MIC: Staphylococcus aureus, MSSA

Structure (SMILES): CC1(C)S[C@@H]2[C@H](NC(=O)[C@H](N)c3ccccc3)C(=O)N2[C@H]1C(=O)O [Ampicillin]
- MIC [1]: 32 µg/mL
- MIC of antibiotic, +FNQ3 [1]: 4 µg/mL
- decrease of the resistance of MRSA against the antibiotic (fraction of MIC) [1]: ½ to ¼
- MIC [2]: 32 µg/mL
- MIC of antibiotic, +FNQ3 [2]: 16 to 32 µg/mL

Structure (SMILES): CN(C)CCn1nnnc1SCC1=C(C(=O)O)N2C(=O)[C@@H](NC(=O)Cc3csc(N)n3)[C@H]2SC1 [Cefotiam]
- MIC [1]: 32 µg/mL
- MIC of antibiotic, +FNQ3 [1]: 16 to 32 µg/mL
- MIC [2]: 0.25 to 0.5 µg/mL
- MIC of antibiotic, +FNQ3 [2]: 0.25 µg/mL

Structure (SMILES): CC[C@H]1OC(=O)[C@H](C)[C@@H](O[C@H]2C[C@@](C)(OC)[C@@H](O)[C@H](C)O2)[C@H](C)[C@@H](O[C@@H]2O[C@H](C)C[C@H](N(C)C)[C@H]2O)[C@](C)(OC)C[C@@H](C)C(=O)[C@H](C)[C@@H](O)[C@]1(C)O [Clarithromycin]
- MIC [1]: 16 µg/mL
- MIC of antibiotic, +FNQ3 [1]: 16 µg/mL
- MIC [2]: 0.5 µg/mL
- MIC of antibiotic, +FNQ3 [2]: 0.5 to 1 µg/mL

Structure (SMILES): OC(Cn1cncn1)(Cn1cncn1)c1ccc(F)cc1F [FLCZ, fluconazole, reference compound]
- MIC ([3]; Candida albicans): 0.03 µg/mL (≈ 0.098 µM)
- MIC ([3]; Candida albicans, TIMM0239): 0.13 µg/mL (≈ 0.424 µM)
- MIC ([3]; Candida albicans, TIMM1756): 0.06 µg/mL (≈ 0.196 µM)
- MIC ([3]; Candida albicans, TIMM1850): 0.06 µg/mL (≈ 0.196 µM)
- MIC ([3]; FSCA strain TA): 0.03 µg/mL (≈ 0.098 µM)
- MIC ([4]; FRCA strain CA383): > 64 µg/mL
- MIC ([4]; FRCA strain CA8941): > 64 µg/mL
- MIC ([4]; FRCA strain DUNC136): > 64 µg/mL
- MIC ([4]; FRCA strain MCV7): 32 µg/mL (≈ 104 µM)
- MIC ([4]; FRCA strain S78941): > 64 µg/mL
- MIC ([4]; FRCA strain T77042): > 64 µg/mL

Structure (SMILES): Cc1cc2c(o1)C(=O)c1ccccc1C2=O [FNQ3, 2-methylnaphtho[2,3-b]furan-4,9-dione]
- MIC with McCoy and WI38 cells relative to HeLa229 cells [5]: approximately ½
- MIC (C. trachomatis; strain D, HeLa229 cells): 1 µg/mL (≈ 4.71 µM)
- MIC (C. trachomatis; strain F, HeLa229 cells): 1 µg/mL (≈ 4.71 µM)
- MIC (C. trachomatis; strain L2, HeLa229 cells): 1 µg/mL (≈ 4.71 µM)
- MIC (C. trachomatis; strain L2, McCoy cells): 0.6 µg/mL (≈ 2.83 µM)
- MIC (C. trachomatis; strain L2, WI 38 cells): 0.5 µg/mL (≈ 2.36 µM)
- MIC (C. pneumoniae; strain KKpn-1, HeLa229 cells): 0.25 µg/mL (≈ 1.18 µM)
- MIC (C. pneumoniae; strain KKpn-1, McCoy cells): 0.25 µg/mL (≈ 1.18 µM)
- MIC (C. pneumoniae; strain TW-183, HeLa229 cells): 0.6 µg/mL (≈ 2.83 µM)
- influence on the growth of Staphylococcus aureus (Staphylococcus aureus): no influence on the growth
- MIC (C. psittaci; HeLa229 cells): 1 µg/mL (≈ 4.71 µM)
- MIC (C. psittaci; McCoy cells): 0.5 µg/mL (≈ 2.36 µM)
- MIC (C. psittaci; WI 38 cells): 0.25 µg/mL (≈ 1.18 µM)

Structure (SMILES): Cc1cc2c(o1)C(=O)c1c(O)cccc1C2=O [FNQ13, 8-hydroxy-2-methylnaphtho[2,3-b]furan-4,9-dione]
- MIC ([3]; Candida albicans): 4 µg/mL (≈ 17.5 µM)
- MIC ([3]; Candida albicans, TIMM0239): 2 µg/mL (≈ 8.76 µM)
- MIC ([3]; Candida albicans, TIMM1756): 2 µg/mL (≈ 8.76 µM)
- MIC ([3]; Candida albicans, TIMM1850): 2 µg/mL (≈ 8.76 µM)
- MIC ([3]; FSCA strain TA): 4 µg/mL (≈ 17.5 µM)
- MIC ([6]; MRSA strain 1 (Patient)): 6.25 µg/mL (≈ 27.4 µM)
- MIC ([6]; MRSA strain 2 (Patient)): 3.13 µg/mL (≈ 13.7 µM)
- MIC ([6]; MRSA strain 3 (Patient)): 3.13 µg/mL (≈ 13.7 µM)
- MIC ([6]; MRSA strain 4 (Patient)): 12.5 µg/mL (≈ 54.8 µM)
- MIC ([6]; MRSA strain 5 (Patient)): 12.5 µg/mL (≈ 54.8 µM)
- MIC ([6]; MRSA strain 6 (Patient)): 3.13 µg/mL (≈ 13.7 µM)
- MIC ([6]; MRSA strain 7 (Patient)): 6.25 µg/mL (≈ 27.4 µM)
- MIC ([6]; MRSA strain 8 (Patient)): 3.13 µg/mL (≈ 13.7 µM)
- MIC ([6]; MRSA strain 9 (Patient)): 6.25 µg/mL (≈ 27.4 µM)
- MIC ([6]; MRSA strain 10 (Patient)): 3.13 µg/mL (≈ 13.7 µM)
- MIC ([6]; MRSA strain 11 (Patient)): 6.25 µg/mL (≈ 27.4 µM)
- MIC ([6]; MRSA strain 12 (N133)): 1.56 µg/mL (≈ 6.84 µM)
- MIC ([6]; MRSA strain 13 (OF4)): 1.56 µg/mL (≈ 6.84 µM)
- MIC ([6]; MRSA strain 14 (N295)): 6.25 µg/mL (≈ 27.4 µM)
- MIC ([6]; read-out: MIC, Mean ± standard deviation, mean over 14 MRSA strains): 5.36 µg/mL (≈ 23.5 µM)
- MIC, Mean ± standard deviation ([6]; mean over 14 MRSA strains): 5.36 ± 3.5 µg/mL (≈ 23.5 µM)
- MIC ([4]; FRCA strain CA383): 2 µg/mL (≈ 8.76 µM)
- MIC ([4]; FRCA strain CA8941): 8 µg/mL (≈ 35.1 µM)
- MIC ([4]; FRCA strain DUNC136): 4 µg/mL (≈ 17.5 µM)
- MIC ([4]; FRCA strain MCV7): 2 µg/mL (≈ 8.76 µM)
- MIC ([4]; FRCA strain S78941): 4 µg/mL (≈ 17.5 µM)
- MIC ([4]; FRCA strain T77042): 2 µg/mL (≈ 8.76 µM)
- antibacterial activity against FRCA compared with FSCA ([4]; FRCA (resistant strain) versus FSCA (sensitive strain)): same degree of antibacterial activity
- MIC ([7]; MSSA strain 1 (Patient)): 25 µg/mL (≈ 110 µM)
- MIC ([7]; MSSA strain 2 (Patient)): 6.25 µg/mL (≈ 27.4 µM)
- MIC ([7]; MSSA strain 3 (Patient)): 12.5 µg/mL (≈ 54.8 µM)
- MIC ([7]; MSSA strain 4 (Patient)): 12.5 µg/mL (≈ 54.8 µM)
- MIC ([7]; MSSA strain 5 (Patient)): 12.5 µg/mL (≈ 54.8 µM)
- MIC ([7]; MSSA strain 6 (Patient)): 6.25 µg/mL (≈ 27.4 µM)
- MIC ([7]; MSSA strain 7 (Patient)): 6.25 µg/mL (≈ 27.4 µM)
- MIC ([7]; MSSA strain 8 (Patient)): 12.5 µg/mL (≈ 54.8 µM)
- MIC ([7]; MSSA strain 9 (Patient)): 12.5 µg/mL (≈ 54.8 µM)
- MIC ([7]; MSSA strain 10 (Patient)): 12.5 µg/mL (≈ 54.8 µM)
- MIC ([7]; MSSA strain 11 (Patient)): 12.5 µg/mL (≈ 54.8 µM)
- MIC ([7]; MSSA strain 12 (1840)): 12.5 µg/mL (≈ 54.8 µM)
- MIC ([7]; read-out: MIC, Mean ± standard deviation, mean over 12 MSSA strains, p < 0.01): 12 µg/mL (≈ 52.5 µM)
- MIC, Mean ± standard deviation ([7]; mean over 12 MSSA strains, p < 0.01): 11.98 ± 4.9 µg/mL (≈ 52.5 µM)

Structure (SMILES): C[C@H]1COc2c(N3CCN(C)CC3)c(F)cc3c(=O)c(C(=O)O)cn1c23 [Levofloxacin]
- MIC [1]: 8 µg/mL
- MIC of antibiotic, +FNQ3 [1]: 4 µg/mL
- MIC [2]: 0.25 µg/mL
- MIC of antibiotic, +FNQ3 [2]: 0.25 µg/mL

Structure (SMILES): CN(C)c1ccc(O)c2c1C[C@H]1C[C@H]3[C@H](N(C)C)C(O)=C(C(N)=O)C(=O)[C@@]3(O)C(O)=C1C2=O [Minacycline]
- MIC [1]: 8 µg/mL
- MIC of antibiotic, +FNQ3 [1]: 2 to 4 µg/mL
- MIC [2]: 0.25 µg/mL
- MIC of antibiotic, +FNQ3 [2]: 0.25 µg/mL

Structure (SMILES): CC[C@H]1OC(=O)[C@H](C)[C@@H](O[C@H]2C[C@@](C)(OC)[C@@H](O)[C@H](C)O2)[C@H](C)[C@@H](O[C@@H]2O[C@H](C)C[C@H](N(C)C)[C@H]2O)[C@](C)(O)C[C@@H](C)/C(=N\OCOCCOC)[C@H](C)[C@@H](O)[C@]1(C)O [Roxithromycin]
- MIC [1]: 16 µg/mL
- MIC of antibiotic, +FNQ3 [1]: 16 µg/mL
- MIC [2]: 1 µg/mL
- MIC of antibiotic, +FNQ3 [2]: 1 µg/mL

Structure (SMILES): CN[C@H](CC(C)C)C(=O)N[C@H]1C(=O)N[C@@H](CC(N)=O)C(=O)N[C@H]2C(=O)N[C@H]3C(=O)N[C@H](C(=O)N[C@H](C(=O)O)c4cc(O)cc(O)c4-c4cc3ccc4O)[C@H](O)c3ccc(c(Cl)c3)Oc3cc2cc(c3O[C@@H]2O[C@H](CO)[C@@H](O)[C@H](O)[C@H]2O[C@H]2C[C@](C)(N)[C@H](O)[C@H](C)O2)Oc2ccc(cc2Cl)[C@H]1O [Vancomycin]
- MIC [1]: 2.5 µg/mL
- MIC of antibiotic, +FNQ3 [1]: 0.6 to 1.25 µg/mL
- decrease of the resistance of MRSA against the antibiotic (fraction of MIC) [1]: ½ to ¼
- MIC [2]: 0.6 µg/mL
- MIC of antibiotic, +FNQ3 [2]: 0.6 µg/mL

Structure (SMILES): N[C@@H](C(=O)N[C@@H]1C(=O)N2C(C(=O)O)=C(Cl)CS[C@H]12)c1ccccc1 [cefaclor]
- MIC [1]: 64 µg/mL
- MIC of antibiotic, +FNQ3 [1]: 16 µg/mL
- decrease of the resistance of MRSA against the antibiotic (fraction of MIC) [1]: ½ to ¼
- MIC [2]: 1 µg/mL
- MIC of antibiotic, +FNQ3 [2]: 1 µg/mL
